Literature values in patent US20220288091A1, “Method for Improving Insulin Sensitivity” (priority 2019, published 2022).

How the values were obtained:
Conditions in all cases: Miner et al.; cited from earlier work
[1] = biological target: T1, GR (Homo sapiens, UniProt P04150)
T1 sequence (P04150 1-777): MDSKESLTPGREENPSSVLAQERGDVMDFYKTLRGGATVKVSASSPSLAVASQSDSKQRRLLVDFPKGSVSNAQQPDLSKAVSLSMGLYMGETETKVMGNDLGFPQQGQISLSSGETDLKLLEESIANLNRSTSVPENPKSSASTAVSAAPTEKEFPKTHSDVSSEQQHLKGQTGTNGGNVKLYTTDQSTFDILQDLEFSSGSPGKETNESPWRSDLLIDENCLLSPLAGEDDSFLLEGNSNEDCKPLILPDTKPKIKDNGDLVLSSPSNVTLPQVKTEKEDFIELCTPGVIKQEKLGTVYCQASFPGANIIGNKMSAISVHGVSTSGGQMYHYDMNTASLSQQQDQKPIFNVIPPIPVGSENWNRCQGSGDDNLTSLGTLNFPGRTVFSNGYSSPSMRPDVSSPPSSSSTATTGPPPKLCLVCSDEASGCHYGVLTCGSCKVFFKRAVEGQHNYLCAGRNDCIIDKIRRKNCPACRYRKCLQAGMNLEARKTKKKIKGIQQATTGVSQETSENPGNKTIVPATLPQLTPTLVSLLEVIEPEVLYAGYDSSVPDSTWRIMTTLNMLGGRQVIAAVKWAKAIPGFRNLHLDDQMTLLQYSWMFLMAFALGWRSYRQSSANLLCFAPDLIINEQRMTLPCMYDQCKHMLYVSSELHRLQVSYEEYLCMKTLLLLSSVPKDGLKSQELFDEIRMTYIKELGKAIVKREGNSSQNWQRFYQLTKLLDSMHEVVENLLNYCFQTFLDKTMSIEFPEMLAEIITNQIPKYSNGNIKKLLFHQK

[2] = biological target: T2, receptors for mineralocorticoids (Homo sapiens, UniProt P08235)
T2 sequence (P08235 1-984): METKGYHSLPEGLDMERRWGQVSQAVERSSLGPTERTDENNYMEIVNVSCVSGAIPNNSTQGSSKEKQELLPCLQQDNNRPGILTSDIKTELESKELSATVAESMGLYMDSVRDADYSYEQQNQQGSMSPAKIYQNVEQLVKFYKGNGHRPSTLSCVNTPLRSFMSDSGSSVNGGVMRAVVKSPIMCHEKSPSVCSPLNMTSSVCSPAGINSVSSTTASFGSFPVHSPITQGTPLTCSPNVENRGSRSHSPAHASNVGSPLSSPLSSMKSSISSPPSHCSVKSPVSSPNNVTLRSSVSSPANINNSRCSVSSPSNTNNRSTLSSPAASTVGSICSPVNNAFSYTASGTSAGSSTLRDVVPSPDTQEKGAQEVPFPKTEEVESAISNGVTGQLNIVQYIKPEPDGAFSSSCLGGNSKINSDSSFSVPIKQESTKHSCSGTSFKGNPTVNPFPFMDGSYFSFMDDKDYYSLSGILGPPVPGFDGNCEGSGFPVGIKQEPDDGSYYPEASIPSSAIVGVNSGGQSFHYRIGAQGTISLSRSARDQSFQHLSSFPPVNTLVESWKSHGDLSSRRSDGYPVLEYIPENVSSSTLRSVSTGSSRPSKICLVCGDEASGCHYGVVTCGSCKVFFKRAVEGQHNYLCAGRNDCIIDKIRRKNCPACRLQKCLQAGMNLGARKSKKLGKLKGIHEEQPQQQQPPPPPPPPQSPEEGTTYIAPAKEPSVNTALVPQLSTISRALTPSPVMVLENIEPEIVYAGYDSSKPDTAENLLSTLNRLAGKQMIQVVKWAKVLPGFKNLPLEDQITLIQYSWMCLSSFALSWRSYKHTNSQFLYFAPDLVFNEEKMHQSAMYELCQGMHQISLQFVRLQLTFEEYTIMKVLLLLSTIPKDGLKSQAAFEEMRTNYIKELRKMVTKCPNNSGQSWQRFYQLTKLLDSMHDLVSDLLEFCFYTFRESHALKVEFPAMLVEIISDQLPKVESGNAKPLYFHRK

[3] = biological target: T3, receptors for androgens (Homo sapiens, UniProt P10275)
T3 sequence (P10275 1-920): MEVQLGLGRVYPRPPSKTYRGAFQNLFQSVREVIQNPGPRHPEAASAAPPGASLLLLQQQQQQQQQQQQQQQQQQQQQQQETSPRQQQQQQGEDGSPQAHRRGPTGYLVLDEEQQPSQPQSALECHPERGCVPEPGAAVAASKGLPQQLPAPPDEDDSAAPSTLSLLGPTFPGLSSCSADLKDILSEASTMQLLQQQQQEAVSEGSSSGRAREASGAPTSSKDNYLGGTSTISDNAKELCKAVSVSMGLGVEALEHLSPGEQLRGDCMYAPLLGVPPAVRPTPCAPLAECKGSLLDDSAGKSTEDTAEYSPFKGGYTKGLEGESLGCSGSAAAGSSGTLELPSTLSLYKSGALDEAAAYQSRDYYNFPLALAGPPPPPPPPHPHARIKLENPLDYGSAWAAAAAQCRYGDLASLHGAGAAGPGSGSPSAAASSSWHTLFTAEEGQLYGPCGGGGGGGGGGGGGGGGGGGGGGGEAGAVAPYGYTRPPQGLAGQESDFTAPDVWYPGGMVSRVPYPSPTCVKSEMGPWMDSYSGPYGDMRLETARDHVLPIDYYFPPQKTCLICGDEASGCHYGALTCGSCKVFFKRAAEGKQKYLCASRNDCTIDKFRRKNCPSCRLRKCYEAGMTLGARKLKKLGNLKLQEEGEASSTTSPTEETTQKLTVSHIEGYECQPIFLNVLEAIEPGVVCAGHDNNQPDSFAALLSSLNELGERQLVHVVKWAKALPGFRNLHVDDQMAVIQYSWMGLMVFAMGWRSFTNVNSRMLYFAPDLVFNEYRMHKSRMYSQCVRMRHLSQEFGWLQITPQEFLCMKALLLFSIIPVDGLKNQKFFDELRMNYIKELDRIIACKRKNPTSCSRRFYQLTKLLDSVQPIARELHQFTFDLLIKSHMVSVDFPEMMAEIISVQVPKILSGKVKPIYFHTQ

[4] = system: receptors for estrogens
[5] = biological target: T4, receptors for progestins (Homo sapiens, UniProt P06401)
T4 sequence (P06401 1-933): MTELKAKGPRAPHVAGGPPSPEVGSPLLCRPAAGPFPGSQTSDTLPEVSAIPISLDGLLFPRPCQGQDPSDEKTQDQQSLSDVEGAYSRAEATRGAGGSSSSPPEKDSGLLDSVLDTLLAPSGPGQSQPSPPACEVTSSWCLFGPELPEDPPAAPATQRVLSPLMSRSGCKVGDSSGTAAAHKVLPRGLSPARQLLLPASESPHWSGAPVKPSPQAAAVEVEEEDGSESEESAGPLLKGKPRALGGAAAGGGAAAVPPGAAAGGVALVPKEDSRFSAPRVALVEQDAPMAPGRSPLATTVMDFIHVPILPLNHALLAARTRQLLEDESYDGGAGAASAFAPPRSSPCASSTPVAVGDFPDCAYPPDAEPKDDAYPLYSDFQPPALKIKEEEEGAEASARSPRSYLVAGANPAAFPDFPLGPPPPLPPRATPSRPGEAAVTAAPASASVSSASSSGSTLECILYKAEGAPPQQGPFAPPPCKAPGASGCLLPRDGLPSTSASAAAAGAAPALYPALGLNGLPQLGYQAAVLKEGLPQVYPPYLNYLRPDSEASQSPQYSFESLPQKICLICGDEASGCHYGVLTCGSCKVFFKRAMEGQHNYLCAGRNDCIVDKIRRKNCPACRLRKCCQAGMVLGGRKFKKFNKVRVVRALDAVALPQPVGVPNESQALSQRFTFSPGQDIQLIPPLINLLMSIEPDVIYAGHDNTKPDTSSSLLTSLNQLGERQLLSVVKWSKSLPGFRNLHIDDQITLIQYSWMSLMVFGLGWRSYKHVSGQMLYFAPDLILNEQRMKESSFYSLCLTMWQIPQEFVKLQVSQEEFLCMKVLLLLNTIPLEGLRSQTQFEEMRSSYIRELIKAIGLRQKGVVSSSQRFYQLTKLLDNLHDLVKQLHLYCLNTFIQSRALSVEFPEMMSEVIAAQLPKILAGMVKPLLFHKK

SMILES: CN(C)c1ccc(C(c2ccc(N(C)C)cc2)c2cc([N+](=O)[O-])ccc2Cl)cc1 [[bis(4-N,N-dimethylaminophenyl)(2-chloro-5-nitrophenyl)methane]]
- Affinity for the GR [1]: nanomolar affinity
- Affinity for mineralocorticoid receptor [2]: no detectable affinity
- Affinity for androgen receptor [3]: no detectable affinity
- Affinity for estrogen receptor [4]: no detectable affinity
- Affinity for progestin receptor [5]: no detectable affinity
